# Test results published in PubChem BioAssay AID270 (DTP/NCI, 2004).
# Values joined by “and” are separate entries in the source; they are usually repeats but may differ in a detail not shown here. Equal values may be shown once. Inconclusive results are not listed.
# Tested on: BDF1 mice, s.c. Lewis lung carcinoma, T/C %
# Assay: NCI In Vivo Anticancer Drug Screen. Data for tumor model Lewis Lung Carcinoma (subcutaneous) in B6D2F1 (BDF1) mice
# How it was run: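 The value reflects a ratio in which the treated cohort's survival time or tumour size is compared against mice receiving only vehicle.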
# [1] = endpoint: median survival time, dose: 6.25 mg/kg/injection, schedule: Q01DX009 (ip), vehicle: saline, higher = longer survival
# [2] = endpoint: median survival time, dose: 12.5 mg/kg/injection, schedule: Q01DX009 (ip), vehicle: saline, higher = longer survival
# [3] = endpoint: median survival time, dose: 50.0 mg/kg/injection, schedule: Q01DX009 (ip), vehicle: saline, higher = longer survival
# [4] = endpoint: mean tumor weight, dose: 66.0 mg/kg/injection, schedule: Q01DX011 (ip), vehicle: other, higher = larger tumour
compound,measurement,setting,value
O=C(NO)c1ccccc1O,T/C,[1],109 % of control
same,T/C,[2],106 % of control
same,T/C,"endpoint: median survival time, dose: 25.0 mg/kg/injection, schedule: Q01DX009 (ip), vehicle: saline, higher = longer survival",108 % of control
same,T/C,[3],103 % of control
same,T/C,"endpoint: median survival time, dose: 400.0 mg/kg/injection, schedule: Q01DX009 (ip), vehicle: saline with Tween-80, higher = longer survival",113 % of control
COc1cccc(/C=C/[N+](=O)[O-])c1,T/C,"endpoint: median survival time, dose: 20.0 mg/kg/injection, schedule: Q01DX009 (ip), vehicle: saline with Tween-80, higher = longer survival",104 % of control
COCC(O)Cn1ccnc1[N+](=O)[O-] (configuration not stated),T/C,"endpoint: median survival time, dose: 500.0 mg/kg/injection, schedule: Q01DX001 (ip), vehicle: saline, higher = longer survival",81 % of control
same,T/C,"endpoint: median survival time, dose: 600.0 mg/kg/injection, schedule: Q01DX001 (ip), vehicle: saline, higher = longer survival",77 % of control and 93 % of control
same,T/C,"endpoint: median survival time, dose: 1000.0 mg/kg/injection, schedule: Q01DX001 (ip), vehicle: saline, higher = longer survival",74 % of control and 91 % of control and 94 % of control
N#CCC(=O)O,T/C,"endpoint: mean tumor weight, dose: 29.0 mg/kg/injection, schedule: Q01DX011 (ip), vehicle: saline, higher = larger tumour",103 % of control
same,T/C,"endpoint: mean tumor weight, dose: 44.0 mg/kg/injection, schedule: Q01DX011 (ip), vehicle: saline, higher = larger tumour",104 % of control
same,T/C,[4],47 % of control
same,T/C,"endpoint: mean tumor weight, dose: 66.0 mg/kg/injection, schedule: Q01DX011 (ip), vehicle: saline, higher = larger tumour",64 % of control
O=[N+]([O-])c1ccc2c(N=Nc3c(O)ccc4ccccc34)c(O)cc(S(=O)(=O)O)c2c1,T/C,"endpoint: mean tumor weight, dose: 180.0 mg/kg/injection, schedule: Q01DX011 (ip), vehicle: saline, higher = larger tumour",59 % of control
same,T/C,"endpoint: mean tumor weight, dose: 265.0 mg/kg/injection, schedule: Q01DX011 (ip), vehicle: saline, higher = larger tumour",50 % of control
same,T/C,[3],111 % of control
same,T/C,"endpoint: median survival time, dose: 100.0 mg/kg/injection, schedule: Q01DX009 (ip), vehicle: saline, higher = longer survival",98 % of control
same,T/C,"endpoint: median survival time, dose: 200.0 mg/kg/injection, schedule: Q01DX009 (ip), vehicle: saline, higher = longer survival",95 % of control
CS(=O)(=O)OC[C@@H](O)[C@@H](O)COS(C)(=O)=O,T/C,"endpoint: mean tumor weight, dose: 62.5 mg/kg/injection, schedule: Q01DX011 (ip), vehicle: saline, higher = larger tumour",71 % of control
same,T/C,"endpoint: mean tumor weight, dose: 250.0 mg/kg/injection, schedule: Q01DX011 (ip), vehicle: saline, higher = larger tumour",115 % of control
same,T/C,"endpoint: mean tumor weight, dose: 500.0 mg/kg/injection, schedule: Q01DX011 (ip), vehicle: saline, higher = larger tumour",94 % of control
same,T/C,"endpoint: mean tumor weight, dose: 750.0 mg/kg/injection, schedule: Q01DX011 (ip), vehicle: other, higher = larger tumour",100 % of control
same,T/C,"endpoint: mean tumor weight, dose: 1000.0 mg/kg/injection, schedule: Q01DX011 (ip), vehicle: other, higher = larger tumour",98 % of control
CC[C@H]1CN2CCc3cc(OC)c(OC)cc3[C@@H]2C[C@@H]1C[C@H]1NCCc2cc(OC)c(OC)cc21,T/C,"endpoint: mean tumor weight, dose: 1.5 mg/kg/injection, schedule: Q01DX011 (ip), vehicle: saline, higher = larger tumour",86 % of control
CCC1NC(=O)C(NC(=O)c2ncccc2O)C(C)OC(=O)C(c2ccccc2)NC(=O)C2CC(=O)CCN2C(=O)C(Cc2ccccc2)N(C)C(=O)C2CCCN2C1=O (configuration not stated) (tested in a mixture with another compound),T/C,"endpoint: median survival time, dose: 9.4 mg/kg/injection, schedule: Q01DX009 (ip), vehicle: Klucel (hydroxypropylcellulose) (HPC), higher = longer survival",102 % of control
same,T/C,"endpoint: median survival time, dose: 18.75 mg/kg/injection, schedule: Q01DX009 (ip), vehicle: Klucel (hydroxypropylcellulose) (HPC), higher = longer survival",87 % of control
same,T/C,"endpoint: median survival time, dose: 37.5 mg/kg/injection, schedule: Q01DX009 (ip), vehicle: Klucel (hydroxypropylcellulose) (HPC), higher = longer survival",94 % of control
CCN(CC)Cc1c(O)ccc2c3c(c(=O)oc12)CCCC3,T/C,"endpoint: median survival time, dose: 29.0 mg/kg/injection, schedule: Q01DX009 (ip), vehicle: Klucel (hydroxypropylcellulose) (HPC), higher = longer survival",99 % of control
same,T/C,"endpoint: median survival time, dose: 58.0 mg/kg/injection, schedule: Q01DX009 (ip), vehicle: Klucel (hydroxypropylcellulose) (HPC), higher = longer survival",94 % of control
O=NN(CCF)C(=O)NC1CSCSC1,T/C,"endpoint: median tumor weight (est.), dose: 14.0 mg/kg/injection, schedule: Q01DX001 (ip), vehicle: saline with Tween-80, higher = larger tumour",61 % of control
same,T/C,"endpoint: median tumor weight (est.), dose: 27.0 mg/kg/injection, schedule: Q01DX001 (ip), vehicle: saline with Tween-80, higher = larger tumour",45 % of control
same,T/C,"endpoint: median tumor weight (est.), dose: 41.0 mg/kg/injection, schedule: Q01DX001 (ip), vehicle: saline with Tween-80, higher = larger tumour",8 % of control
O=C1NC2(CCCCC2)C(=O)N1CCN(CCCl)CCCl,T/C,"endpoint: median survival time, dose: 1.5 mg/kg/injection, schedule: Q01DX009 (ip), vehicle: Klucel (hydroxypropylcellulose) (HPC), higher = longer survival",98 % of control
same,T/C,"endpoint: median survival time, dose: 1.5 mg/kg/injection, schedule: Q01DX009 (ip), vehicle: saline, higher = longer survival",91 % of control
same,T/C,"endpoint: median survival time, dose: 1.56 mg/kg/injection, schedule: Q01DX009 (ip), vehicle: saline, higher = longer survival",87 % of control and 93 % of control
same,T/C,"endpoint: median survival time, dose: 3.0 mg/kg/injection, schedule: Q01DX009 (ip), vehicle: Klucel (hydroxypropylcellulose) (HPC), higher = longer survival",104 % of control
same,T/C,"endpoint: median survival time, dose: 3.0 mg/kg/injection, schedule: Q01DX009 (ip), vehicle: saline, higher = longer survival",89 % of control
same,T/C,"endpoint: median survival time, dose: 3.12 mg/kg/injection, schedule: Q01DX009 (ip), vehicle: saline, higher = longer survival",100 % of control
same,T/C,"endpoint: median survival time, dose: 6.0 mg/kg/injection, schedule: Q01DX009 (ip), vehicle: saline, higher = longer survival",106 % of control
same,T/C,[1],111 % of control
same,T/C,"endpoint: median survival time, dose: 12.0 mg/kg/injection, schedule: Q01DX009 (ip), vehicle: saline, higher = longer survival",89 % of control
same,T/C,[2],97 % of control
C/C=C(\C)C(=O)OC1C(C)C2(O)C(C=C(CO)CC3(O)C(=O)C(C)=CC32)C2C(C)(C)C12OC(=O)CCCCCCCCC (configuration not stated),T/C,"endpoint: median survival time, dose: 0.13 mg/kg/injection, schedule: Q01DX009 (ip), vehicle: saline + alcohol, higher = longer survival",103 % of control
same,T/C,"endpoint: median survival time, dose: 0.25 mg/kg/injection, schedule: Q01DX009 (ip), vehicle: saline + alcohol, higher = longer survival",95 % of control
same,T/C,"endpoint: median survival time, dose: 0.5 mg/kg/injection, schedule: Q01DX009 (ip), vehicle: saline + alcohol, higher = longer survival",92 % of control
O=C1C2C3C=CC(C3)C2C(=O)N1c1nccs1 (configuration not stated),T/C,"endpoint: mean tumor weight, dose: 50.0 mg/kg/injection, schedule: Q01DX011 (ip), vehicle: carboxymethylcellulose (CMC), higher = larger tumour",113 % of control
same,T/C,"endpoint: mean tumor weight, dose: 100.0 mg/kg/injection, schedule: Q01DX011 (ip), vehicle: carboxymethylcellulose (CMC), higher = larger tumour",100 % of control
same,T/C,"endpoint: mean tumor weight, dose: 200.0 mg/kg/injection, schedule: Q01DX011 (ip), vehicle: carboxymethylcellulose (CMC), higher = larger tumour",45 % of control
[I][Hg][CH2]C1COCC([CH2][Hg][I])O1.[I][Hg][CH2]C1COCC([CH2][Hg][I])O1 (configuration not stated),T/C,"endpoint: mean tumor weight, dose: 19.0 mg/kg/injection, schedule: Q01DX011 (ip), vehicle: other, higher = larger tumour",80 % of control
same,T/C,"endpoint: mean tumor weight, dose: 29.0 mg/kg/injection, schedule: Q01DX011 (ip), vehicle: other, higher = larger tumour",57 % of control
same,T/C,[4],36 % of control
COc1ccc2c(c1)CC[C@@H]1[C@@H]2CC[C@@]2(C)[C@H]1CC[C@@]2(O)C(F)=C(F)F,T/C,"endpoint: median survival time, dose: 12.5 mg/kg/injection, schedule: Q01DX009 (sc), vehicle: steriod suspending solution, higher = longer survival",93 % of control
COc1ccc(C[C@H](N)C(=O)NC2C(CO)OC(n3cnc4c(N(C)C)ncnc43)C2O)cc1 (some centres not stated),T/C,"endpoint: median survival time, dose: 2.0 mg/kg/injection, schedule: Q01DX009 (ip), vehicle: saline, higher = longer survival",97 % of control
same,T/C,"endpoint: median survival time, dose: 4.0 mg/kg/injection, schedule: Q01DX009 (ip), vehicle: saline, higher = longer survival",96 % of control and 101 % of control
same,T/C,"endpoint: median survival time, dose: 8.0 mg/kg/injection, schedule: Q01DX009 (ip), vehicle: saline, higher = longer survival",102 % of control
same,T/C,"endpoint: median survival time, dose: 16.0 mg/kg/injection, schedule: Q01DX009 (ip), vehicle: saline, higher = longer survival",99 % of control
same,T/C,"endpoint: median survival time, dose: 32.0 mg/kg/injection, schedule: Q01DX009 (ip), vehicle: saline, higher = longer survival",90 % of control and 110 % of control
same,T/C,"endpoint: median survival time, dose: 64.0 mg/kg/injection, schedule: Q01DX009 (ip), vehicle: saline, higher = longer survival",97 % of control and 102 % of control
same,T/C,"endpoint: median survival time, dose: 128.0 mg/kg/injection, schedule: Q01DX009 (ip), vehicle: saline, higher = longer survival",102 % of control
CNC(C)C(O)c1ccccc1 (configuration not stated),T/C,"endpoint: mean tumor weight, dose: 66.6 mg/kg/injection, schedule: Q01DX011 (ip), vehicle: saline, higher = larger tumour",109 % of control
CC1CCCCN1CCNc1ccc(CO)c2sc3ccccc3c(=O)c12 (configuration not stated),T/C,"endpoint: median survival time, dose: 25.0 mg/kg/injection, schedule: Q01DX009 (ip), vehicle: saline with Tween-80, higher = longer survival",108 % of control
same,T/C,"endpoint: median survival time, dose: 50.0 mg/kg/injection, schedule: Q01DX009 (ip), vehicle: saline with Tween-80, higher = longer survival",100 % of control
same,T/C,"endpoint: median survival time, dose: 100.0 mg/kg/injection, schedule: Q01DX009 (ip), vehicle: saline with Tween-80, higher = longer survival",122 % of control
COC(C(=O)C(O)C(C)O)C1Cc2cc3cc(OC4CC(OC5CC(O)C(O)C(C)O5)C(O)C(C)O4)c(C)c(O)c3c(O)c2C(=O)C1OC1CC(OC2CC(O)C(OC3CC(C)(O)C(O)C(C)O3)C(C)O2)C(O)C(C)O1 (configuration not stated),T/C,"endpoint: median survival time, dose: 0.06 mg/kg/injection, schedule: Q01DX009 (ip), vehicle: saline, higher = longer survival",93 % of control
same,T/C,"endpoint: median survival time, dose: 0.13 mg/kg/injection, schedule: Q01DX009 (ip), vehicle: saline, higher = longer survival",93 % of control and 123 % of control
same,T/C,"endpoint: median survival time, dose: 0.25 mg/kg/injection, schedule: Q01DX009 (ip), vehicle: saline, higher = longer survival",96 % of control
same,T/C,"endpoint: median survival time, dose: 0.5 mg/kg/injection, schedule: Q01DX009 (ip), vehicle: saline, higher = longer survival",94 % of control
